# Test results reported in ChEMBL document CHEMBL1201862, “PubChem BioAssay data set” (2004).
#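 Method: 48-hour compound exposure of cells in 96-well plates, five concentrations, linear interpolation of endpoints. GI50 marks 50% less growth.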 The source made the active and inactive calls. Rule as the data show it: active = GI50 up to about 1.1 µM and inactive = higher.
# How the values were obtained:
# Assay in all cases: NCI tumour cell line growth inhibition, 48 h
# SK-OV-3 = tested on: SK-OV-3
# NCI-H226 = tested on: NCI-H226
# CAKI-1 = tested on: CAKI-1
# HT-29 = tested on: HT-29
# 786-0 = tested on: 786-0
# SR = tested on: SR
# OVCAR-3 = tested on: OVCAR-3
# SK-MEL-5 = tested on: SK-MEL-5
# OVCAR-8 = tested on: OVCAR-8
# HCT-15 = tested on: HCT-15
# UACC-62 = tested on: UACC-62
# LOX IMVI = tested on: LOX IMVI
# BT-549 = tested on: BT-549
# MDA-MB-435 = tested on: MDA-MB-435
# A498 = tested on: A498
# TK-10 = tested on: TK-10
# Hs-578T = tested on: Hs-578T
# OVCAR-4 = tested on: OVCAR-4
# HOP-62 = tested on: HOP-62
# MOLT-4 = tested on: MOLT-4
# MCF7 = tested on: MCF7
# Malme-3M = tested on: Malme-3M
# KM12 = tested on: KM12
# NCI-H23 = tested on: NCI-H23
# HCT-116 = tested on: HCT-116
# SF-268 = tested on: SF-268
# CCRF-CEM = tested on: CCRF-CEM
# SF-295 = tested on: SF-295
# HOP-92 = tested on: HOP-92
# T47D = tested on: T47D
# SK-MEL-28 = tested on: SK-MEL-28
# SF-539 = tested on: SF-539
# NCI-H460 = tested on: NCI-H460
# SNB-19 = tested on: SNB-19
# SW-620 = tested on: SW-620
# NCI/ADR-RES = tested on: NCI/ADR-RES
# PC-3 = tested on: PC-3
# UACC-257 = tested on: UACC-257
# SN12C = tested on: SN12C
# NCI-H522 = tested on: NCI-H522
# UO-31 = tested on: UO-31
# SNB-75 = tested on: SNB-75
# U-251 = tested on: U-251
# HCC 2998 = tested on: HCC 2998
# MDA-N = tested on: MDA-N
# IGROV-1 = tested on: IGROV-1
# A549 = tested on: A549
# K562 = tested on: K562
# COLO 205 = tested on: COLO 205
# RPMI-8226 = tested on: RPMI-8226
# ACHN = tested on: ACHN
# MDA-MB-231 = tested on: MDA-MB-231
# EKVX = tested on: EKVX
# HL-60 = tested on: HL-60
# RXF 393 = tested on: RXF 393
# DU-145 = tested on: DU-145
# M14 = tested on: M14
# OVCAR-5 = tested on: OVCAR-5
structure (smiles),measurement,setting,value
O=c1c2ccccc2n2n1Cc1ccccc1C2,GI50,SK-OV-3,> 100 µM (inactive)
same,GI50,NCI-H226,> 100 µM (inactive)
same,GI50,CAKI-1,> 100 µM (inactive)
same,GI50,HT-29,> 100 µM (inactive)
same,GI50,786-0,> 100 µM (inactive)
same,GI50,SR,> 100 µM (inactive)
same,GI50,OVCAR-3,> 100 µM (inactive)
same,GI50,SK-MEL-5,> 100 µM (inactive)
same,GI50,OVCAR-8,> 100 µM (inactive)
same,GI50,HCT-15,> 100 µM
same,GI50,UACC-62,> 100 µM (inactive)
same,GI50,LOX IMVI,> 100 µM (inactive)
same,GI50,BT-549,> 100 µM (inactive)
same,GI50,MDA-MB-435,> 100 µM (inactive)
same,GI50,A498,> 100 µM (inactive)
same,GI50,TK-10,> 100 µM (inactive)
same,GI50,Hs-578T,57.9 µM (inactive)
same,GI50,OVCAR-4,> 100 µM (inactive)
same,GI50,HOP-62,> 100 µM (inactive)
same,GI50,MOLT-4,> 100 µM (inactive)
same,GI50,MCF7,> 100 µM (inactive)
same,GI50,Malme-3M,> 100 µM (inactive)
same,GI50,KM12,> 100 µM (inactive)
same,GI50,NCI-H23,> 100 µM (inactive)
same,GI50,HCT-116,> 100 µM (inactive)
same,GI50,SF-268,> 100 µM (inactive)
same,GI50,CCRF-CEM,> 100 µM (inactive)
same,GI50,SF-295,> 100 µM (inactive)
same,GI50,HOP-92,> 100 µM (inactive)
same,GI50,T47D,> 100 µM (inactive)
same,GI50,SK-MEL-28,> 100 µM (inactive)
same,GI50,SF-539,> 100 µM (inactive)
same,GI50,NCI-H460,> 100 µM (inactive)
same,GI50,SNB-19,> 100 µM (inactive)
same,GI50,SW-620,> 100 µM (inactive)
same,GI50,NCI/ADR-RES,> 100 µM (inactive)
same,GI50,PC-3,> 100 µM (inactive)
same,GI50,UACC-257,> 100 µM (inactive)
same,GI50,SN12C,> 100 µM (inactive)
same,GI50,NCI-H522,> 100 µM (inactive)
same,GI50,UO-31,86.3 µM (inactive)
same,GI50,SNB-75,58.3 µM (inactive)
same,GI50,U-251,> 100 µM (inactive)
same,GI50,HCC 2998,> 100 µM (inactive)
same,GI50,MDA-N,> 100 µM (inactive)
same,GI50,IGROV-1,> 100 µM (inactive)
same,GI50,A549,> 100 µM (inactive)
same,GI50,K562,> 100 µM (inactive)
same,GI50,COLO 205,> 100 µM (inactive)
same,GI50,RPMI-8226,> 100 µM (inactive)
same,GI50,ACHN,> 100 µM (inactive)
same,GI50,MDA-MB-231,> 100 µM (inactive)
same,GI50,EKVX,35.6 µM (inactive)
same,GI50,HL-60,> 100 µM (inactive)
same,GI50,RXF 393,> 100 µM (inactive)
same,GI50,DU-145,> 100 µM (inactive)
Oc1cc(Cl)cc2cc(Br)cnc12,GI50,SK-OV-3,> 59.8 µM (inactive)
same,GI50,NCI-H226,22.6 µM (inactive)
same,GI50,CAKI-1,6.79 µM (inactive)
same,GI50,HT-29,11.3 µM (inactive)
same,GI50,786-0,9.86 µM (inactive)
same,GI50,SR,1.42 µM (inactive)
same,GI50,OVCAR-3,1.52 µM (inactive)
same,GI50,SK-MEL-5,1.53 µM (inactive)
same,GI50,OVCAR-8,2.3 µM (inactive)
same,GI50,HCT-15,0.771 µM
same,GI50,UACC-62,6.27 µM (inactive)
same,GI50,LOX IMVI,0.463 µM (active)
same,GI50,BT-549,1.53 µM (inactive)
same,GI50,MDA-MB-435,4.65 µM (inactive)
same,GI50,A498,27.7 µM (inactive)
same,GI50,TK-10,41.3 µM (inactive)
same,GI50,Hs-578T,4.62 µM (inactive)
same,GI50,OVCAR-4,3.49 µM (inactive)
same,GI50,HOP-62,3.4 µM (inactive)
same,GI50,MOLT-4,2.04 µM (inactive)
same,GI50,MCF7,3.1 µM (inactive)
same,GI50,Malme-3M,2.23 µM (inactive)
same,GI50,KM12,4.69 µM (inactive)
same,GI50,NCI-H23,4.39 µM (inactive)
same,GI50,HCT-116,1.09 µM (active)
same,GI50,SF-268,1.59 µM (inactive)
same,GI50,CCRF-CEM,1.9 µM (inactive)
same,GI50,SF-295,2.96 µM (inactive)
same,GI50,HOP-92,4.69 µM (inactive)
same,GI50,T47D,7.28 µM (inactive)
same,GI50,SK-MEL-28,7.16 µM (inactive)
same,GI50,SF-539,2.18 µM (inactive)
same,GI50,NCI-H460,1.99 µM (inactive)
same,GI50,SNB-19,4.1 µM (inactive)
same,GI50,SW-620,3.96 µM (inactive)
same,GI50,M14,1.56 µM (inactive)
same,GI50,NCI/ADR-RES,2.06 µM (inactive)
same,GI50,PC-3,2.57 µM (inactive)
same,GI50,UACC-257,2.63 µM (inactive)
same,GI50,SN12C,2.23 µM (inactive)
same,GI50,NCI-H522,2.74 µM (inactive)
same,GI50,OVCAR-5,8.95 µM (inactive)
same,GI50,UO-31,3.94 µM (inactive)
same,GI50,SNB-75,13.6 µM (inactive)
same,GI50,U-251,2.07 µM (inactive)
same,GI50,HCC 2998,15.6 µM (inactive)
same,GI50,MDA-N,2.3 µM (inactive)
same,GI50,IGROV-1,2.92 µM (inactive)
same,GI50,A549,3.27 µM (inactive)
same,GI50,K562,1.69 µM (inactive)
same,GI50,COLO 205,41.6 µM (inactive)
same,GI50,RPMI-8226,1.42 µM (inactive)
same,GI50,ACHN,1.88 µM (inactive)
same,GI50,MDA-MB-231,2.56 µM (inactive)
same,GI50,EKVX,4.14 µM (inactive)
same,GI50,HL-60,0.258 µM (active)
same,GI50,RXF 393,2.29 µM (inactive)
same,GI50,DU-145,5.14 µM (inactive)
